From the supplement of paper PMC10331698
± gives the standard deviation of the averaged measurements.

Columns and labels:
Assay in all cases: level (log10 ratio to DMSO vehicle control); higher = higher biomarker level / cell amount than vehicle control
Conditions in all cases: in DMSO
[1] = compound: C=C(C)C(=O)OCC(F)(F)C(F)(F)C(F)(F)C(F)(F)C(F)(F)C(F)(F)C(F)(F)F
Protocol: (§1)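 BioMAP Diversity Plus panel of 12 human primary cell co-culture systems (3C, 4H, LPS, SAg, BT, BF4T, BE3C, CASM3C, HDF3CGF, KF3CT, MyoF, Mphg). Compounds were added 1 h before stimulation and left for 24 h (MyoF 48 h; BT 72 h for soluble read-outs or 6 d for IgG). Biomarkers were read by ELISA, cytotoxicity by SRB, PBMC viability and proliferation by Alamar Blue. Each well value was divided by the mean of 8 DMSO control wells on the same plate and log10 transformed; duplicate blinded samples were tested at 4 concentrations.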

Azathioprine = compound: Cn1cnc([N+](=O)[O-])c1Sc1ncnc2[nH]cnc12 [Azathioprine]
Protocol: as §1

[2] = compound: O=C(O)CCC(F)(F)C(F)(F)C(F)(F)C(F)(F)C(F)(F)F [2H,2H,3H,3H-Perfluorooctanoic acid]
Protocol: as §1

[3] = compound: O=C(O)CCC(F)(F)C(F)(F)C(F)(F)F [3:3 Fluorotelomer carboxylic acid]
Protocol: as §1

[4] = compound: O=P(O)(O)CCC(F)(F)C(F)(F)C(F)(F)C(F)(F)C(F)(F)C(F)(F)C(F)(F)C(F)(F)F [((Perfluorooctyl)ethyl)phosphonic acid]
Protocol: as §1

1H,1H-Heptafluorobutanol = compound: OCC(F)(F)C(F)(F)C(F)(F)F [1H,1H-Heptafluorobutanol]
Protocol: as §1

Test System | level (log10) ([1]; 6700 nM) | level (log10) ([1]; 20000 nM) | level (log10) (Azathioprine; 1400 nM) | level (log10) (Azathioprine; 4200 nM) | level (log10) (Azathioprine; 13000 nM) | level (log10) (Azathioprine; 38000 nM) | level (log10) ([2]; 6700 nM) | level (log10) ([2]; 20000 nM) | level (log10) ([2]; 60000 nM) | level (log10) ([3]; 6700 nM) | level (log10) ([3]; 20000 nM) | level (log10) ([3]; 60000 nM) | level (log10) ([4]; 6700 nM) | level (log10) ([4]; 20000 nM) | level (log10) ([4]; 60000 nM) | level (log10) (1H,1H-Heptafluorobutanol; 6700 nM) | level (log10) (1H,1H-Heptafluorobutanol; 20000 nM) | level (log10) (1H,1H-Heptafluorobutanol; 60000 nM)
BF4T:PAI-I | 0.0195 ± 0.022 | 0.0135 ± 0.019 | 0.004 ± 0.017 | -0.001 ± 0.0099 | -0.009 ± 0.0014 | -0.005 ± 0.013 | -0.005 ± 0.014 | -0.0155 ± 0.016 | -0.024 ± 0.014 | 0.0025 ± 0.021 | -0.011 ± 0.018 | 0.006 ± 0.0014 | 0.003 ± 0.0042 | 0.0055 ± 0.011 | 0.016 ± 0.021 | -0.015 ± 0.0042 | -0.009 | 0.0025 ± 0.028
BF4T:SRB | 0.0005 ± 0.0078 | -0.005 ± 0.011 | 0.016 ± 0.014 | -0.0045 ± 0.0092 | -0.0025 ± 0.0021 | -0.005 ± 0.0028 | -0.0005 ± 0.0078 | -0.003 ± 0.013 | -0.005 ± 0.0028 | -0.008 ± 0.0057 | -0.0105 ± 0.0035 | 0 ± 0.0014 | -0.008 ± 0.0028 | -0.009 ± 0.0014 | -0.0045 ± 0.0078 | 0.004 ± 0.017 | -0.0075 ± 0.0078 | 0.009 ± 0.017
BF4T:tPA | 0.0085 ± 0.0035 | -0.0115 ± 0.021 | 0.005 ± 0.048 | -0.034 ± 0.011 | -0.071 ± 0.023 | -0.0935 ± 0.053 | -0.014 ± 0.0014 | -0.023 ± 0.0085 | -0.0535 ± 0.042 | 0.004 ± 0.031 | -0.0005 ± 0.015 | 0.015 ± 0.0099 | 0.0055 ± 0.013 | 0.0645 ± 0.005 | 0.072 ± 0.054 | -0.0205 ± 0.00071 | -0.009 ± 0.013 | 0.0155 ± 0.037
BF4T:uPA | 0.0015 ± 0.032 | -0.0055 ± 0.005 | 0 ± 0.0099 | -0.008 ± 0.0042 | -0.033 ± 0.0028 | -0.026 ± 0.0099 | 0.0015 ± 0.015 | -0.003 ± 0.03 | -0.008 ± 0.013 | 0.0025 ± 0.016 | 0 ± 0.011 | -0.01 ± 0.031 | 0.008 ± 0.0085 | 0.0185 ± 0.018 | 0.0205 ± 0.057 | -0.002 ± 0.0071 | -0.019 ± 0.011 | -0.009 ± 0.011
BT:B cell Proliferation | -0.005 ± 0.021 | 0.0115 ± 0.0078 | -0.0315 ± 0.0064 | -0.0305 ± 0.0092 | -0.0555 ± 0.005 | -0.123 ± 0.026 | 0.0515 ± 0.028 | 0.078 ± 0.059 | 0.05 ± 0.05 | -0.018 ± 0.0085 | -0.0115 ± 0.042 | -0.011 ± 0.02 | 0.014 ± 0.021 | -0.0325 ± 0.044 | -0.136 ± 0.058 | 0.0265 ± 0.0078 | -0.0155 ± 0.026 | -0.016 ± 0.075
BT:PBMC Cytotoxicity | 0.0145 ± 0.025 | 0.0105 ± 0.029 | 0.002 ± 0.023 | 0.002 ± 0.018 | -0.054 ± 0.017 | -0.085 ± 0.04 | 0.03 ± 0.021 | 0.0185 ± 0.033 | 0.019 ± 0.017 | 0.0035 ± 0.0064 | 0.012 ± 0.017 | 0.018 ± 0.014 | 0.0055 ± 0.00071 | 0 ± 0.0057 | 0.0095 ± 0.015 | 0.0095 ± 0.026 | -0.015 ± 0.0099 | 0.0105 ± 0.015
BT:Secreted IgG | 0.021 ± 0.055 | 0.024 ± 0.013 | -0.866 ± 0.086 | -0.986 ± 0.019 | -0.857 ± 0.054 | -0.672 ± 0.0085 | 0.016 ± 0.0028 | -0.033 ± 0.098 | -0.212 ± 0.17 | -0.011 ± 0.024 | -0.0295 ± 0.012 | -0.0155 ± 0.005 | 0.001 ± 0.02 | 0.0005 ± 0.0035 | -0.02 ± 0.0057 | 0.0305 ± 0.0078 | 0.0055 ± 0.053 | 0.027 ± 0.023
BT:sIL-2 | 0.012 ± 0.0099 | 0.0075 ± 0.047 | -0.017 ± 0.11 | -0.033 ± 0.1 | -0.164 ± 0.037 | -0.629 ± 0.044 | -0.0225 ± 0.036 | 0.0065 ± 0.044 | -0.05 ± 0.072 | -0.042 ± 0.13 | -0.0335 ± 0.022 | 0.0335 ± 0.0021 | 0.0065 ± 0.036 | 0.067 ± 0.069 | -0.107 ± 0.22 | -0.0065 ± 0.077 | -0.0265 ± 0.011 | 0.0365 ± 0.029
BT:sIL-6 | 0.016 ± 0.0057 | -0.019 ± 0.059 | -0.0045 ± 0.042 | -0.0485 ± 0.074 | -0.228 ± 0.013 | -0.563 ± 0.0042 | 0.003 ± 0.011 | -0.0345 ± 0.013 | -0.0825 ± 0.032 | 0.0225 ± 0.056 | 0.055 ± 0.065 | 0.0425 ± 0.076 | 0.045 ± 0.0014 | 0.0645 ± 0.035 | -0.019 ± 0.055 | 0.006 ± 0.044 | 0.049 ± 0.0071 | 0.0385 ± 0.043
BT:sIL-17A | 0.0535 ± 0.073 | -0.0375 ± 0.22 | -0.075 ± 0.078 | -0.179 ± 0.099 | -0.304 ± 0.0057 | -0.804 ± 0.058 | 0.0035 ± 0.021 | -0.199 ± 0.028 | -0.231 ± 0.099 | 0.021 ± 0.11 | -0.049 ± 0.13 | -0.0765 ± 0.26 | 0.0985 ± 0.00071 | 0.132 ± 0.044 | 0.0985 ± 0.083 | -0.145 ± 0.19 | -0.166 ± 0.005 | -0.0935 ± 0.25
BT:sIL-17F | 0.0315 ± 0.0035 | -0.0245 ± 0.063 | -0.0825 ± 0.079 | -0.041 ± 0.12 | -0.092 ± 0.054 | -0.254 ± 0.025 | -0.016 ± 0.058 | -0.0575 ± 0.059 | -0.01 ± 0.064 | -0.003 ± 0.081 | 0.035 ± 0.081 | 0.059 ± 0.048 | -0.094 ± 0.081 | 0.035 ± 0.025 | -0.0045 ± 0.088 | -0.007 ± 0.035 | -0.0425 ± 0.29 | -0.0385 ± 0.032
BT:sTNF-alpha | -0.042 ± 0.0099 | -0.0145 ± 0.013 | 0.0225 ± 0.22 | -0.168 ± 0.11 | -0.167 ± 0.017 | -0.782 ± 0.077 | -0.0085 ± 0.0035 | -0.0055 ± 0.074 | 0.005 ± 0.037 | 0.152 ± 0.077 | 0.0025 ± 0.098 | 0.158 ± 0.018 | -0.019 ± 0.013 | -0.0175 ± 0.15 | -0.211 ± 0.39 | 0.078 ± 0.055 | 0.0915 ± 0.057 | 0.011 ± 0.083
LPS:CCL2/MCP-1 | 0.007 ± 0.0071 | 0.017 ± 0.0085 | 0.019 ± 0.055 | 0.011 ± 0.0042 | 0.03 ± 0.023 | -0.01 ± 0.0014 | 0.017 ± 0.011 | 0.018 ± 0.044 | 0.0255 ± 0.043 | 0.001 ± 0.023 | -0.0025 ± 0.015 | 0.0135 ± 0.013 | -0.0075 ± 0.005 | -0.0255 ± 0.0092 | -0.046 ± 0.016 | -0.0125 ± 0.018 | -0.0055 ± 0.0035 | -0.001 ± 0.017
LPS:CD40 | -0.03 ± 0.024 | -0.0145 ± 0.021 | -0.041 ± 0.03 | -0.04 ± 0.016 | -0.08 ± 0.047 | -0.148 ± 0.03 | -0.005 ± 0.047 | -0.014 ± 0.02 | -0.0635 ± 0.026 | -0.0035 ± 0.021 | 0.027 ± 0.028 | -0.014 ± 0.051 | -0.042 ± 0.041 | -0.0535 ± 0.00071 | -0.148 ± 0.0035 | 0.056 ± 0.023 | 0.0345 ± 0.0064 | 0.0045 ± 0.049
LPS:CD62E/E-Selectin | -0.021 ± 0.018 | 0.0025 ± 0.0035 | 0.0155 ± 0.0035 | 0.0075 ± 0.015 | 0.0145 ± 0.013 | -0.006 | 0.0405 ± 0.029 | 0.022 ± 0.028 | 0.027 ± 0.021 | -0.0045 ± 0.015 | -0.016 ± 0.0057 | 0.0075 ± 0.011 | 0.0085 ± 0.018 | -0.0145 ± 0.015 | -0.012 ± 0.0057 | 0.0035 ± 0.013 | 0.001 ± 0.013 | -0.0035 ± 0.0092
LPS:CD69 | -0.0065 ± 0.069 | 0.0095 ± 0.067 | -0.0175 ± 0.00071 | -0.046 ± 0.0014 | -0.0345 ± 0.033 | -0.073 ± 0.04 | -0.0475 ± 0.084 | -0.076 ± 0.052 | -0.135 ± 0.051 | -0.0345 ± 0.09 | -0.016 ± 0.052 | -0.0435 ± 0.061 | -0.04 ± 0.0042 | -0.032 ± 0.018 | -0.0305 ± 0.023 | -0.016 ± 0.021 | -0.0245 ± 0.021 | -0.0075 ± 0.0035
